Assays:
RRM1 mRNA = RRM1 mRNA level by quantitative RT-PCR in A549 cells; format: cell-based, human; conditions: 0.01 nM siRNA; 24 h post-transfection
Description: RNA was purified from cells using Trizol® extraction as per the manufacturer's protocol (Invitrogen). cDNA was prepared by digesting approximately 200 ng purified RNA with DNAse I (Invitrogen) for 15 minutes at room temperature, followed by 15 minutes at 65° C. in the presence of 25 mM EDTA. 30 ng random primers were added and incubated for 10 minutes at room temperature, 1 minute on ice; Superscript III polymerase (Invitrogen) was added in presence of 5 nM DTT (Sigma, St Louis, Mo.) and 1 mM deoxyribonucleotides (Invitrogen), and the reaction incubated at 25° C. for 5 minutes, followed by an hour at 55° C. cDNA was diluted 1:3 in 10 mM Tris pH 7.0, and quantitative RT-PCR carried out on an ABI Prism 7900HT (Applied Biosciences, Inc., Foster City, Calif.) using FastStart TaqMan SYBRGreen (Roche, Basel, Switzerland) and specific primers at 360 nM for RRM1 and RRM2 and the housekeeping genes HPRT and Lamin. Primer sequence pairs used for RRM1, RRM2, HPRT and lamin are given in SEQ ID NO: 4881 and 4882; 4883 and 4884; 4885 and 4886; 4887 and 4888 respectively.

A549 cells = assay: Growth inhibition of siRNA-transfected A549 cells, SYBR Green I DNA content; format: cell-based, human; conditions: 10 nM siRNA; DNA content 96 hours after transfection
Procedure, shortened: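 Growth read-out: cellular DNA quantified with SYBR Green I (485/535 nm) 96 h after transfection, cells frozen, thawed and lysed in PBS/1% Triton X-100, pH 7. Cells (A549, 5×10^3 cells/cm^2) received 10 nM siRNA by RNAiMAX; non-specific siRNA served as control; triplicate wells averaged.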

Substance: SEQ ID NO: 4830: Stealth siRNA targeting RRM1 (chain 1 AAGATCTGCTTATTCAGTAACTGGG; chain 2 AAGAUCUGCUUAUUCAGUAACUGGG; Commercial Stealth siRNA duplex, modification pattern not given here; one strand in two spellings)
- RRM1 mRNA expression (RRM1 mRNA): effectively silenced
- Growth Inhibition in A549 cells (A549 cells): ++ (inhibits by at least 75%)

From patent US20080145313A1, “Compositions and Methods for the Treatment and Prevention of Neoplastic Disorders” (Genesis Research & Development Corporation Limited, priority 2006, published 2008)
